By IC50 is commonly meant the point on the concentration scale where inhibition reaches its midpoint.

The text below walks through data of patent US20250130221A1, “METHOD OF IDENTIFYING AGENTS FOR THE TREATMENT OF CYSTIC FIBROSIS CAUSED BY THE MUTATION F508DEL” (FACULDADE DE CIÊNCIAS DA UNIVERSIDADE DE LISBOA, priority 2022, published 2025).

Data set [1] relates to GRK2. The conditions noted are these: cited from earlier work.
For data set [2], the target named is T1, GRK1 (Bos taurus, UniProt P28327).
T1 sequence (P28327 1-561): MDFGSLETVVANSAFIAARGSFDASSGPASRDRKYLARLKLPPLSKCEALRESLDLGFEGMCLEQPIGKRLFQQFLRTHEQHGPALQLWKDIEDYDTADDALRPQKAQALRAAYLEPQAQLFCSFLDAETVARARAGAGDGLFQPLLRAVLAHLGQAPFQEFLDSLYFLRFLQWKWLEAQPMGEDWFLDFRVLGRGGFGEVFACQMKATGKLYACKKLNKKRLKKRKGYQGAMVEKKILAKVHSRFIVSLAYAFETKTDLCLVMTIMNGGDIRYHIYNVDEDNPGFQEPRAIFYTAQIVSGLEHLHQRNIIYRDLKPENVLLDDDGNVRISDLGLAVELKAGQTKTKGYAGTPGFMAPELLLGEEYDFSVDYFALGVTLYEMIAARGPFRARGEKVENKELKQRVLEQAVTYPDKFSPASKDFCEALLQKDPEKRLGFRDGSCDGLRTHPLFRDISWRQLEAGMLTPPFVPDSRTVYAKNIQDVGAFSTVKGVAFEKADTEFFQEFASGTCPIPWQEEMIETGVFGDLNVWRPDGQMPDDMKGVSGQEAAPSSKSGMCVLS
The note with it: cited from earlier work.

For data set [3], the system named is PKA. The conditions noted are these: statement in words; cited from earlier work.
Data set [4] deals with T2, F508del-CFTR (Homo sapiens, UniProt P13569, DEL508-508).
T2 construct: expressed in transfected cells; host or cells: CFBE41o- cells constitutively (stably) expressing F508del-CFTR
Briefly: Western blot of F508del-CFTR processing (bands B and C) in CFBE cells. In kind it is cell-based. The conditions noted are these: for F508del-CFTR band C rescue: CFBE cells stably expressing F508del-CFTR, vs DMSO, n=3; for additivity to CFTR correctors, bands C and B: 1 μM with VX-661 (5 μM), VX-445 (3 μM) or VX-661+VX-445, n=4; for CFTR processing [C/(B+C)]: dose-response 0-1 μM, proportional increase in band B.

Data set [5] has as its target T2, F508del-CFTR. The data set can be described thus: Halide-sensitive YFP fluorescence quenching in CFBE cells expressing F508del-CFTR. Type of data set: cell-based. The note with it: for additivity to CFTR correctors, HS-YFP quenching rate (F508del-CFTR functional rescue): 1 μM with VX-661 (5 μM), VX-445 (3 μM) or VX-661+VX-445, n=4. As to the method:
CFBE41o- cells constitutively co-expressing the HS-yellow fluorescent protein (HS-YFP) YFP-H148Q/I152L as well as wt- or F508del-CFTR (described in (Sondo et al., 2011)) were a kind gift from Dr Nicoletta Pedemonte (IRCCS Istituto G. Gaslini, Genoa, Italy). These cells were cultured in Minimum Essential Medium (MEM) supplemented with 10% FBS, 2 mM L-glutamine, puromycin 2 μg/ml and G418 […] (Sigma, #A1720) at 37° C. in 5% CO2.
This assay was used to assess whether the enhanced F508del-CFTR traffic recorded when the reporter cell line was transfected with confirmed hit siRNAs also corresponded to enhanced F508del-CFTR ionic transport function. As in the microscopy-based screens, a 72 h siRNA transfection time was selected. The assay followed a previously reported protocol (Sondo et al., 2011). CFBE cells co-expressing HS-YFP and wt- or F508del-CFTR were grown to confluency (37° C., 5% CO2) and split to 50% confluency. On the following day, the experiment was initiated by seeding cells onto siRNA-coated 96 well plates using a peristaltic pump (ThermoFisher Multidrop™ Combi). Each well was seeded with 10,000 cells. […] After the stimulation period, each plate was transferred to a fluorescence plate reader equipped with fast reagent injectors (Tecan Infinite F200 Pro) and excitation (BP 475-495 nm) and emission ([…]) filters suitable for YFP fluorescence. Each assay consisted of a continuous 16 s fluorescence reading with 2 s before and 14 s after injection of 160 μl of a PBS where Cl^− had been replaced by I^− (final I^− concentration in the well: 100 mM). The pH of all PBS-containing solutions was rigorously set at pH 7.4 immediately before use to avoid artifacts in the fluorescence reading. The resulting kinetics was background subtracted and normalized to the pre-injection fluorescence value. To determine the fluorescence quenching rate associated with I^− influx, the final 14 s of the kinetics in each well were fitted with a single decay exponential curve and the derivative at the injection time (i.e. the quenching rate) was extracted from the curve parameters. […]

Data set [6] deals with CFBE cells expressing F508del-CFTR. The data set can be described thus: Cellular toxicity in CFBE cells during dose-response WB assay. Type of data set: cell-based, human. The conditions noted are these: concentrations higher than 1 μM.
Data set [7] concerns GRK5. The conditions noted are these: covalent binding; cited from earlier work.
In data set [8] the target is T3, GRK2 (Homo sapiens, UniProt P25098).
T3 sequence (P25098 1-689): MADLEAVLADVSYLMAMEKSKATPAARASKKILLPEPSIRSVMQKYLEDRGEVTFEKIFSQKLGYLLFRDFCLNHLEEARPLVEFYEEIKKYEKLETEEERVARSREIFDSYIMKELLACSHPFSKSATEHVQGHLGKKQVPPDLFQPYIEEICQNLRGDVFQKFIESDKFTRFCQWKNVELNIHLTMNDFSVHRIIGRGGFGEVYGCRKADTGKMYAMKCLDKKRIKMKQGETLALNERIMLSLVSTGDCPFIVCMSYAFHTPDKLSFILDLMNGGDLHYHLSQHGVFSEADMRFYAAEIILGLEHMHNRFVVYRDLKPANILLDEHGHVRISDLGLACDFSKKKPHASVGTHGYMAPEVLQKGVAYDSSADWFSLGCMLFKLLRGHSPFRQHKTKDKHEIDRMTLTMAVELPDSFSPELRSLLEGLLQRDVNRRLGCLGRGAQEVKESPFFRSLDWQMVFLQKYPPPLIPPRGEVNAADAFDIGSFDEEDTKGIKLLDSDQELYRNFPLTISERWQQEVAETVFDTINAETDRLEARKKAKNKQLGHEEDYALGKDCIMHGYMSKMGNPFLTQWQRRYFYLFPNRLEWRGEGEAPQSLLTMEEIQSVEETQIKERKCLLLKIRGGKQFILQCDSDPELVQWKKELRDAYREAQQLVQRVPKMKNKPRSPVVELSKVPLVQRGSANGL
The conditions noted are these: GRK5 over GRK2; cited from earlier work.

The mark [9] stands for this setting: listed as (R,Z)-3-((4-(2-Bromoacetamido)-3,5-dimethyl-1H-pyrrol-2-yl)-methylene)-2-oxo-N-.

T2 sequence (P13569 with tags, fused parts or gaps DEL508-508): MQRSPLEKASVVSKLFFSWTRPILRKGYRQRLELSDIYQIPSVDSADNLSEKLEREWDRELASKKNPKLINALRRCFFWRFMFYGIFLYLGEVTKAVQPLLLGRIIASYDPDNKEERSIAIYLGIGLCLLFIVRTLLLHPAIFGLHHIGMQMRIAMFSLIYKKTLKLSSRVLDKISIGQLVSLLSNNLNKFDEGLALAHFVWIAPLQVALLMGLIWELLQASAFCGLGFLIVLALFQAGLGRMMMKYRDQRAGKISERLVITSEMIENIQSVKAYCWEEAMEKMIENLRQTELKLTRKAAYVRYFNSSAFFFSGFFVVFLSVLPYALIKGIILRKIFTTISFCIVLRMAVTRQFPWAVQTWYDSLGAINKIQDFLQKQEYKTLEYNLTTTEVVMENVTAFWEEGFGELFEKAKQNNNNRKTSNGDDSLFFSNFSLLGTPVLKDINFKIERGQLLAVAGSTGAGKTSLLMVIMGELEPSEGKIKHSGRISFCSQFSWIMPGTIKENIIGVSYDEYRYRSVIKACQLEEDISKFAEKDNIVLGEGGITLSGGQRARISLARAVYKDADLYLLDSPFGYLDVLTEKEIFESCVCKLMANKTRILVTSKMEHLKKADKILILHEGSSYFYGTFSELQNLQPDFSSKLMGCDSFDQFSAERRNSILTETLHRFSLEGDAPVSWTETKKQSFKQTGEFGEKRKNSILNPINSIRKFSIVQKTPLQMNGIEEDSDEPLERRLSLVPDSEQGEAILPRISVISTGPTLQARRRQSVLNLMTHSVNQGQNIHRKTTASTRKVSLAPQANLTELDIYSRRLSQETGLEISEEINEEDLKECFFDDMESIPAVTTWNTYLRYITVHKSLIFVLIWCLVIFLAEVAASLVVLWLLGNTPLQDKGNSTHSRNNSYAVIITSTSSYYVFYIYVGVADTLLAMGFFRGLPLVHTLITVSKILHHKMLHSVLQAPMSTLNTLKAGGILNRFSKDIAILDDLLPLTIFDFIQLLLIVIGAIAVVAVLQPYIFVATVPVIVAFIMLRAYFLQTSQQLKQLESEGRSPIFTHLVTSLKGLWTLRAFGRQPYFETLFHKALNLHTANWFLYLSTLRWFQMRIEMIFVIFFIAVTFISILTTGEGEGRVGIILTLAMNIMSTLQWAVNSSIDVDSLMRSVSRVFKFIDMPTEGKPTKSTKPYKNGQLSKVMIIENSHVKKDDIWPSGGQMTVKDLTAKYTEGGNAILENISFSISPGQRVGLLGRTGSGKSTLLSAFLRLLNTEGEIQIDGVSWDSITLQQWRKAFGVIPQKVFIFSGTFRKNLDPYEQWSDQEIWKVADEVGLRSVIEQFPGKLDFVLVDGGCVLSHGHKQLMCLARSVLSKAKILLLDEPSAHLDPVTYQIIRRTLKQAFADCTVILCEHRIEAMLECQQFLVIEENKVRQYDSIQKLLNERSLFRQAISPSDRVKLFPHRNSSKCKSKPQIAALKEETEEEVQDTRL

As to `CC1=C(C(=O)Nc2ccc3[nH]ncc3c2)C(c2ccc(F)c(C(=O)NCc3ccccn3)c2)NC(=O)N1` (stereo not drawn) [CCG215022], the half-maximal inhibitory concentration (IC50) was 150 ± 70 nM in data set [1] and 3900 ± 1000 nM in data set [2]. Besides, the “effect on GRK1” value in data set [2] (statement in words) is “does not affect”. In addition, in data set [3], the “effect on PKA” value is given as “does not affect”.
`Cc1[nH]c(/C=C2\C(=O)Nc3ccc(C(=O)N[C@H](C)c4ccccc4)cc32)c(C)c1NC(=O)CBr` [9 g, (R,Z)-3-((4-(2-Bromoacetamido)-3,5-dimethyl-1H-pyrrol-2-yl)-methylene)-2-oxo-N-(1-phenylethyl)indoline-5-carboxamide]: the “F508del-CFTR band C rescue” value in data set [4] (0.3 μM) is reported as “Statistically significant band C rescue”; in data set [4] (0.3 μM, listed as (R,Z)-3-((4-(2-Bromoacetamido)-3,5-dimethyl-1H-pyrrol-2-yl)-methylene)-2-oxo-N-), “statistically significant band C rescue”; in data set [4] (1.0 μM), “Statistically significant band C rescue”; in data set [4] (1.0 μM, listed as (R,Z)-3-((4-(2-Bromoacetamido)-3,5-dimethyl-1H-pyrrol-2-yl)-methylene)-2-oxo-N-), “statistically significant band C rescue”. Moreover, the “additivity to CFTR correctors, bands C and B” value in data set [4] is “additive to all corrector treatments regarding bands C and B”; in data set [4] (setting [9]) it was “additivity”. The “band C rescue relative to VX-661” value in data set [4] (at 0.3 and 1.0 μM) is 50 % of VX-661. Also, the “CFTR processing [C/(B+C)]” value is recorded as “not significantly changed” in data set [4] and “without improved CFTR processing” in data set [4] (setting [9]). Also, the F508del-CFTR processing rescue entry in data set [4] (low micromolar concentrations) was “significant F508del-CFTR processing and function rescue”. Also, the “additivity of rescue to correctors (summary statement)” value in data set [4] (low micromolar concentrations, VX-809, VX-445 and VX-661) was “additive to VX-809, VX-445 and VX-661”. Further, the “additivity to CFTR correctors, HS-YFP quenching rate (F508del-CFTR functional rescue)” value in data set [5] is “additive to all corrector treatments regarding F508del-CFTR functional rescue”; in data set [5] (setting [9]), “additivity in all conditions”. In data set [5] (low micromolar concentrations), the F508del-CFTR function rescue entry is “significant F508del-CFTR processing and function rescue”. Moreover, in data set [6], the cellular toxicity result is given as “cellular toxicity”. In addition, in data set [7], the IC50 is 8.6 nM. The “selectivity against GRK2” value in data set [8] was 1400 fold.
